One assay relates to MCF-7. The assay is described as follows: MTT growth inhibition, MCF-7. It counts as cell-based. The following applies: Homo sapiens, MCF7, Mammary Carcinoma, MTT assay. The method, then:
(§1) For cell viability assay, cells were seeded in wells of 96-well plates for 2 days and then treated with different concentrations of mushroom extract fractions or purified verticillin A for 2 days. The cells were then incubated with MTT (3-(4,5-dimethylthiazol-2-yl)-2,5-diphenyltetrazolium bromide) using the MTT assay kit (ATCC, Manassas, Va.) according to the manufacturer's instructions.
(§2) To determine whether verticillin A inhibits other types of tumor cell growth, Mammary carcinoma (Bcap-37 and MCF-7), heptocarcinoma (HepG2), cervical (HeLa), liver (SMMC-7721), lung (SPC-A1) cancer cells and T cell leukemia (Jurkat) were cultured in the presence of different concentrations of verticillin A and examined for the efforts of verticillin A on the growth rate of these tumor cells in vitro.
On the technique in general: Tetrazolium assays rely on reduction of a dye to a coloured formazan, in cell work by metabolically active cells.

Another assay deals with SMMC-7721. As to the kind of experiment: MTT growth inhibition, SMMC-7721. To be noted: Homo sapiens, Hepatoma, MTT assay. The class given is cell-based. How it is done: as §1, §2
For another assay, the system named is HepG2 cells. As to the kind of experiment: MTT growth inhibition, HepG2. The class given is cell-based, human. The method, then: as §1
The growth inhibitory effort of the purified verticillin A was examined on HepG2 cells. Tumor cells were cultured in the presence of different concentrations of verticillin A and analyzed for the growth by MTT assay 24 and 72 h later, respectively. […] To determine whether the growth inhibitory effect is due to increased tumor cell death, genomic DNA was isolated from the treated tumor cells and analyzed by agarose gel electrophoresis.
as §2

A further assay has as its system SPC-A1. As to the kind of experiment: MTT growth inhibition, SPC-A1. It counts as cell-based. The following applies: SPCA1, Lung Carcinoma, MTT assay. How it is done: as §1, §2
In assay [1] the test system is multiple types of tumor cell lines. The assay is described as follows: Growth inhibition of multiple types of tumor cell lines. The class given is cell-based. How it is done: as §1, §2
Assay [2] deals with 6 other human colon carcinoma cells. The assay is described as follows: TRAIL sensitization in other colon carcinoma cells. It counts as cell-based. To be noted: verticillin A and TRAIL. The method, then: Cells were seeded in wells of 96-well plates for 2 days and then treated with different concentrations of mushroom extract fractions or purified verticillin A for 2 days. The cells were stained with propidium iodide (PI) (Trevigen, Gaithersburg, Md.) or PI plus annexin V-Alex Fluor 647 (Biolegend, San Diego, Calif.) and analyzed by flow cytometry.
The sensitization effects of verticillin A was examined in other types of tumor cells.

The test system of assay [3] is SW620 cells. As to the kind of experiment: Cytochrome C release. The class given is cell-based, human. The following applies: SW620, combinational treatment of verticillin A and TRAIL. How it is done: (§3) Tumor cells were lysed in lysis buffer containing 20 mM HEPES, pH 7.4, 20 mM NaCl, 10% glycerol, 1% Triton X-100, and a protease inhibitor cocktail (Calbiochem, La Jolla, Calif.). Cellular proteins were separated by 12% or 4-20% SDS-PAGE gradient gels, transferred to Immobilon-P membranes (Millipore, Bedford, Mass.) or nitrocellulose (Bio-Rad, Hercules, Calif.), and probed with the following primary antibodies: anti-FLIP (Cell Sinnaling, Danvers, Mass.) at 1:250; anti-survivin (Santa Cruz Biotech) at 1:100; anti-cIAP1 (cell signaling) at 1:250; anti-xIAP (cell Signaling) at 1:500; anti-Bad (Cell Signaling) at 1:1000; anti-Bax (Cell Signaling) at 1:2000; anti-Mcl-1 (Santa Cruz) at 1:100); anti-A-CDase (BD Biosciences) at 1:1000; anti-CytC (BD Biosciences) at 1:1000; and β-actin (Sigma, St Louis, Mo.) at 1:8000. The blots were then washed and incubated with horseradish peroxidase-conjugated anti-goat (Santa Cruz Biotech), anti-mouse or rabbit (Amersham-Pharmacia, Piscataway, N.J.) IgGs. Blots were detected using the ECL Plus Western detection kit (Amersham Pharmacia Biotech).

In assay [4] the test system is SW620 cells. As to the kind of experiment: SW620 growth with anticancer drugs, MTT assay. It counts as cell-based, human. The following applies: Verticillin A pretreatment, then Etoposide, Cisplatin, 5-FU or Doxorubicin. How it is done:
as §1
Etoposie, Cisplatin, 5-FU and Doxorubicin are commonly used cancer drugs that suppress tumor cell growth through their cytotoxicity. High cytotoxicity is often associated with high dose of their drugs. Furthermore, tumor cells often develop resistance to these cytotoxic drugs. To determine whether Verticillin A can increase the efficacy of these drugs and overcome drug resistance, the effectiveness of Verticillin A combined with these 4 drugs in suppression of tumor cell growth was tested in vitro. SW620 cell sensitivity to these drugs was first measured. SW620 cells are resistant to Etoposide but sensitive to 5-FU. […] SW620 cells were next pretreated with Verticillin A, followed by treatment with Etoposide (1 μg/ml), Cisplatin (1 μg/ml), 5-FU ([…]) and Doxorubicin (0.01 μg/ml), respectively.

Another assay relates to A-CDase. As to the kind of experiment: A-CDase protein level, Western blot. It counts as cell-based, human. To be noted: after verticillin A treatment. How it is done:
as §3
To elucidate the molecular mechanisms underlying verticillin A sensitization of tumor cells to TRAIL-mediated apoptosis, the protein levels of genes known to function in the mitochondrion-mediated apoptosis pathway were analyzed. […]
In general terms: A western blot detects proteins with antibodies after separation by electrophoresis.

The subject of assay [5] is BNIP3, IRF8, Neurog1, p15ink4b, RUNX3. The assay is described as follows: Expression of genes with methylated promoters. The class given is cell-based, human. To be noted: SW620, verticillin A 0-50 nM. The method, then:
To determine whether verticillin A inhibits DNA methylation in other gene promoters, 4 other genes (IRF8, Neurog1, p15ink4b, RUNX3) with known promoter DNA methylation in human colon carcinoma cells were selected. SW620 cells were treated with AzadC (0-1.0 μM) and verticillin A (0-50 nM), respectively, and analyzed for the expression of BNIP3 and these 4 genes.

The test system of a further assay is TET1. The assay is described as follows: TET1 expression, RT-PCR. The class given is cell-based, human. The following applies: colon carcinoma cells, dose-dependent. The method, then:
FIG. 11A is an acrylamide gel showing that LS411N cells were treated with Verticillin A at the indicated concentrations for 24 h and analyzed for TET1, TET2 and TET3 level by RT-PCR.
TET1 is an enzyme with very recently identified function in converting 5-methylcytosine (5mC) to 5-hydroxylmethylcytosine (5hmC), and eventually to unmodified Cytosine to reverse DNA methylation (Veron N, Peters A H. Epigenetics: Tet proteins in the limelight. Nature 2011; 473:293-4; Ito et al. Tet proteins can convert 5-methylcytosine to 5-formylcytosine and 5-carboxylcytosine. Science 2011; 333:1300-3; Guo et al. Hydroxylation of 5-methylcytosine by TET1 promotes active DNA demethylation in the adult brain. Cell 2011; 145:423-34). […] Thus, Verticillin A is a small molecule TET1 activator. Verticillin A appears to be the first reported small molecule TET1 activator.

pIC50: −log10 of the molar value.

By pIC50 is commonly meant −log10 of the IC50, conventionally taken in molar units.

`CN1C(=O)[C@]23SS[C@]1(C)C(=O)N2C1Nc2ccccc2[C@@]1(C12c4ccccc4NC1N1C(=O)[C@@]4(C)SS[C@]1(C(=O)N4C)[C@H]2O)[C@@H]3O` (stereo partly drawn) [Verticillin A]: the pIC50 in the assay with MCF-7 is 7.19; in the assay on SMMC-7721, 7.10; in the assay with HepG2 cells (Homo sapiens, Hepatoma, HepG2, MTT assay), 7.21; with SPC-A1, 7.52; in assay [1] (span over the tumor cell lines of Table 1, read-out: IC50 for multiple types of cancer cells) it was over 6.70. The “concentration at which the inhibitory effect reached plateau” value in the assay on HepG2 cells (HepG2, MTT assay 24 and 72 h) fell in the range of 100 to 150 nM. For the same compound, in the assay on HepG2 cells (HepG2, MTT assay 24 and 72 h), the “lowest concentration exhibiting growth inhibitory effect” value is on record as 10 nM. Besides, the “inhibitory activity against HepG2 cells” value with HepG2 cells (purified compound, cytotoxicity screen) is listed as “potent inhibitory activity”. Further, the “growth of tumor cells in vitro” value in assay [1] (Bcap-37, MCF-7, HepG2, HeLa, SMMC-7721, SPC-A1, Jurkat) is “significantly inhibited the growth of all these tumor cells”. In addition, the “sensitization to TRAIL-induced apoptosis” value in [2] was “sensitization effect of verticillin A was also observed”. For the same compound, in the assay on SW620 cells [3], the “cytochrome C release” value is listed as “dramatically increased cytochrome C release”. Besides, the “tumor growth inhibitory effect of the drugs combined with Verticillin A” value with SW620 cells [4] is recorded as “significantly increased the tumor growth inhibitory effects”. For the same compound, the A-CDase expression level result in the assay with A-CDase is “decreased after verticillin A treatment at a dose-dependent manner”. The “expression levels of BNIP3, IRF8, Neurog1, p15ink4b, RUNX3” value in assay [5] is “dramatically increased the expression levels of BNIP3 and these 4 genes”. Further, the TET1 expression result in the assay on TET1 is listed as “up-regulates TET1 expression”.

Source of the values: patent publication US20120219568A1, “EPIDITHIODIOXO[…] USES THEREOF IN TREATING CANCER” (priority 2011, published 2012).
